Test results taken from patent publication US20130164379A1, “NANOPARTICLE MICELLE COATED COMPOSITIONS” (priority 2011, published 2013).

Legend:
[1] = system: U2OS-C3 osteosarcoma cells; assay: Immunoblotting for caspase-3 cleavage, thiostrepton and bortezomib; type: cell-based, human; conditions: U2OS-C3, sub-apoptotic concentrations, 24 hr
Description: U2OS-C3 osteosarcoma, PA-1 ovarian, HCT116 colon and MiaPaca-2 pancreatic cancer cells were cultured in DMEM medium (Invitrogen). HCT-116 and MiaPaca-2 (shFOXM1) cells were cultured in DMEM medium (Invitrogen). MDA-MB231 (parental and shFOXM1) cells were grown in RPMI-1640 medium (Invitrogen). The media were supplemented with 10% fetal bovine serum (Atlanta Biologicals) and 1% penicillin-streptomycin (GIBCO) and the cells were kept at 37° C. in 5% CO2. Stable cell lines were generated by transduction of FOXM1 shRNA lentiviral particles (Sigma) followed by selection with puromycin (Sigma).
Actively dividing cells were seeded into a 100-mm plate at a density of 7.5×10^5 cells. […] Cells were lysed in IP buffer (20 mM HEPES, 1% Triton X-100, 150 mM NaCl, 1 mM EDTA, 1 mM EGTA, 100 mM NaF, 10 mM Na4P2O7, 1 mM sodium orthovanadate, 0.2 mM PMSF supplemented with protease inhibitor tablet and the protein concentration was determined using the Bio-Rad protein assay reagent. Fifty micrograms of the cell lysates were separated by electrophoresis on SDS-polyacrylamide mini gel and transferred to PVDF membrane Immunoblotting was performed with specific antibodies for cleaved caspase-3 (9664 Cell Signaling), FOXM1 (Dr. Costa) and β-actin (A5441, Sigma).

HCT-116 cells = assay: Detection of apoptosis by annexin V-PE/7AAD flow cytometry; type: cell-based, human; conditions: HCT-116, 0.75 μM thiostrepton, 10 nM bortezomib, 24 hr; single drugs over the control
Description: The AnnexinV-PE staining kit (559763, BD Bio. Sci.) was used for the detection of apoptotic bodies following the vendor's protocol. This kit uses a dual-staining protocol in which the cells show fluorescence of Annexin V (apoptotic cells) and fluorescence of 7AAD (necrotic cells or late apoptotic cells). Briefly the tumor cells were grown at a density of 50% confluence in 100-mm culture dishes and were treated with varying concentrations of the drugs for 24 hr. The cells were trypsinized, washed with PBS, and were processed for labeling with annexinV-7AAD. The labeled cells were analyzed by flow cytometry.

[2] = system: MDA-MB-231-luc solid breast tumor xenografts; assay: MDA-MB-231-luc breast tumor xenograft, combination with bortezomib; type: in vivo, athymic mice; conditions: thiostrepton 30 mg/kg i.v., bortezomib 0.5 mg/kg i.p., 5 injections
Description: Animals were maintained and treated in accordance with the Animal Care and Use Committee of UIC. […] Treatment began once tumors reached sizes of 100 mm^3. After completion of the dosing schedule, animals were sacrificed and tumors were removed. Tumors were frozen in liquid N2 and kept at −80° C. until further analysis.
Treatments were performed once every two days (3 times a week), during which tumor volumes were monitored with calipers (l×w×h=volume, mm^3). Animals were also weighed once a week. After 5 treatments, animals were sacrificed and tumors removed.
For bioluminescence imaging, animals were injected intraperitonially with 100 mg luciferin/kg 10 min before animals were anaesthetized under isoflurane. Animals were then imaged for tumor-associated bioluminescence (IVIS, Xenogen), where relative units of bioluminescence were quantified as flux (photon/sec) and analyzed with Living Image software.

purified proteasomes = molecular target: T1, purified proteasomes (Homo sapiens, UniProt P28072); assay: Proteasome activity assay on purified proteasomes; type: biochemical; conditions: bortezomib 5 nM, thiostrepton 20 μM
T1 construct: purchased Enzo
Description: To assay proteasome inhibitor activities of proteasome inhibitors purified proteasomes, (0.5 μg, 1 μg/μL) were pre-incubated with inhibitors bortezomib (5 nM, 1 μL of 0.5 μM in DMSO) and/or thiostrepton (20 μM, 1 μL of 2 mM) in 10× assay buffer (10 μL) and H2O (88.5 μL) for 30 min at room temperature. Ac-YVAD-amc substrate (10 μL, 0.5 mM) was then added and the assay solution was incubated at […] for 2 hr, after which solutions were examined for fluorescence at excitation wavelength of 340 nm and emission wavelength of 505 nm. Values are represented as a % of the proteasome activity of non-inhibited proteasomes.

[3] = system: DEN/PB hepatocellular carcinoma mouse model
Description: The efficacy of nanoparticle micelle coated compositions containing thiostrepton in inhibiting tumor growth in DEN/PB hepatocellular carcinoma mouse model was evaluated.
Spontaneous induction of HCC was achieved by intraperitonial injection of the carcinogen diethylnitrosamine (DEN) into 2-day-old neonatal BALB/C mice. Carcinogenesis was further induced by continuing the mice on phenobarbital (PB)-doped drinking water (1 mg/mL). […] As a treatment schedule, animals were treated once every other day (3 times a week) for 5 weeks before sacrifice, after which livers were removed and examined for visible tumor growth (FIG. 14b).
Animal livers were then fixed in 4% paraformaldehyde, embedded in paraffin wax and the right lobe of embedded livers were sectioned and stained with H&E for quantitative analysis of carcinoma formation.

[4] = Solubility observation of thiostrepton in cell media; type: physicochemical; conditions: DMSO-dissolved thiostrepton added to cell media

Structure (SMILES)	caspase-3 cleavage [1]	apoptosis (annexin V-PE/7AAD) (HCT-116 cells)	tumor size / tumor growth compared to non-treated tumors [2]	increase in tumor size compared to the first day of treatment ([2]; 15 days)	inhibition of purified proteasomes (YVAD-amc cleavage) (purified proteasomes)	body weights of treated animals compared to non-treated animals ([3]; 3 times a week for 5 weeks)	number of adenomas compared to livers from non-treated animals ([3]; single treatments, H&E sections)	fewer number of visible liver tumors compared to non-treated control animals ([3]; thiostrepton-micelle 30 mg/kg i.v., bortezomib 0.5 mg/kg i.p., 3 times a week for 5 weeks)	solubility [4]
CC(C)C[C@H](NC(=O)[C@H](Cc1ccccc1)NC(=O)c1cnccn1)B(O)O [bortezomib]	little or no caspase-3 cleavage	6.9%	slight reduction in tumor growth	6 fold	only slightly hindered	did not decrease significantly	suppression of the number of adenomas	50%	–
C=C(NC(=O)C(=C)NC(=O)c1csc(C2=N[C@@H]3c4csc(n4)[C@H]4NC(=O)c5csc(n5)[C@H]([C@](C)(O)[C@@H](C)O)NC(=O)[C@H]5CSC(=N5)/C(=C/C)NC(=O)[C@H]([C@@H](C)O)NC(=O)c5csc(n5)[C@]3(CC2)NC(=O)[C@H](C)NC(=O)C(=C)NC(=O)[C@H](C)NC(=O)[C@H]([C@@H](C)CC)N[C@@H]2C=Cc3c([C@H](C)O)cc(nc3[C@H]2O)C(=O)O[C@@H]4C)n1)C(N)=O [thiostrepton]	little or no caspase-3 cleavage	6.1%	–	–	only slightly hindered	–	–	–	highly insoluble
